For data set [1], the system named is MDA-231 human breast cancer cells. The data set can be described thus: Model of tumor seeding: MDA-231 cells inoculated intracardially, DTCs in skeleton at 24 hours. The following applies: for seeding of the skeleton by MDA-231 breast cancer cells: SCID mice, i.p. one hour before and 3 hours after inoculation (Compound XXII 10 mg/kg); for reduction in DTCs vs vehicle: 24 hours.
Method: Female SCID mice (Taconic CB17-SCRF, ˜20 g body weight) were housed in a germfree barrier. At 6 weeks of age, mice were anesthetized with a mixture of ketamine (80 mg/kg) and xylazine (10 mg/kg). […] After intracardiac injection, the experimenter distributed each animal in unlabeled cages. Each cage was randomly assigned to different treatment groups by a second experimenter.
The dosing regimen was selected based on results from pharmacokinetic analyses. […] For the detection and enumeration of single cancer cells, the experimenter was not blinded but was assisted by the Nuance FX multiplex imaging software (see below). A fluorescence image was acquired for each tissue section analyzed, approximately 36 serial sections spanning the entire width of each knee-joint. The identification and enumeration of single cells was obtained by three different experimenters, including the Principal Investigator, and occasional discrepancies reconciled prior to compiling the final data.
Animal model of tumor seeding: SCID mice (Taconic CB17-SCRF, ˜25 g body weight) were housed in a germ-free barrier. At 6 weeks of age, mice were anesthetized with a mixture of ketamine (80 mg/kg) and xylazine (10 mg/kg). Tumor cells were delivered as a 100 μl suspension of serum-free culture medium by carefully accessing the left ventricle of the heart through the chest with an insulin syringe mounting a 30-gauge needle. […] Species- and class-matched irrelevant immunoglobulins (Rabbit IgG, 15 μg/ml, Jackson ImmunoResearch) or DMSO were used for the control groups. […] The dosing regimen was selected based on results from pharmacokinetic analyses. […] Blue-fluorescent beads, 10 μm-polystyrene in diameter (Invitrogen-Molecular Probes) were included in the injection medium and visualized by fluorescence microscopy to validate injection efficiency. Mice showing non-homogenous distribution of or lacking fluorescent beads in tissue sections of lungs and kidneys were removed from the study.
Soft-tissue organs were then placed either in 30% sucrose for cryoprotection or 1% paraformaldehyde for long-term storage. Bones were decalcified in 0.5M EDTA (Fisher Scientific) for 7 days followed by incubation in 30% sucrose. Tissues were maintained at 4° C. for all aforementioned steps and frozen in O.C.T. medium (Sakura Finetek) by placement over dry-ice chilled 2-methylbutane. Soft-tissue organs as well as knee joints (femora and tibiae) were processed to obtain serial frozen sections, 80 μm in thickness, using a Microm HM550 cryostat.
Fluorescent images of skeletal metastases were acquired using an Axio Scope.A1 microscope (Zeiss) connected to a Nuance Multispectral Imaging System (PerkinElmer). Digital images were analyzed and processed using the Nuance Software (v. 2.4). […]

Data set [2] deals with MDA-231 cells. As to the kind of experiment: Enumeration of CTCs in blood of tumor-bearing mice after mobilization with AMD-3100. It is filed as in vivo. The following applies: for mobilization of cancer cells (CTCs) into the blood: compound alone, tumor-bearing mice. On the procedure: Blood was withdrawn by cardiac puncture. AMD-3100 was purchased from Selleckchem (S8030) dissolved in PBS at 1 mg/ml and at −20° C. before use. Tumor-bearing animals were anesthetized as described above and 200-250 μl of systemic blood was collected at the designated time points and transferred in K2EDTA tubes. Blood samples were placed on ice, diluted using a saline buffer (0.5% BSA, 2% EDTA in PBS) at a 1:8 ratio and then filtered through a 70 μm cell strainer immediately prior to achieve a label-free, microfluidic isolation of CTCs. For enumeration, the Captor® system (Clearbridge Biomedics, Singapore) was used, which allows visualization of individual CTCs trapped into crescent-shape microwells. Following complete flowing of the diluted blood, the CTChip® was transferred to the stage of an inverted fluorescent microscope and all trapped CTCs were counted. For the recovery of fully viable CTCs we used the ClearCell® FX system (Clearbridge Biomedics, Singapore), which employs the CTChip® FR1 to isolate cancer cells from blood cells based on size, deformability and inertia through a Dean Flow Fractionation process.
CTCs were lysed on the same microfluidic chip used for capture using an ice-cooled RNA lysis buffer (Norgen Bioteck Corp.). […] Genespecific primers and probe sets were purchased from Applied Biosystem.
Cancer cells in the blood are a dynamic pool that constantly fluctuates as cells enter circulation upon being dislodged from tumors, reseed additional sites or perish to anoikis if they fail to do so. This makes determining the time spent by cancer cells in the blood problematic. A major hurdle for these types of studies is the limited ability to monitor the timing of CTCs' entry into and egress from the blood during steady-state conditions. To circumvent these issues, cancer cells were acutely mobilized from tumors in the skeleton and soft-tissues in mice—above steady-state counts—and then thereafter the blood was sampled at specific intervals, reasoning that a time-dependent decline of the number of CTCs in the blood would result from cancer cells seeding back to tissues and dying in circulation. […] When spreading via the systemic circulation, cancer cells become susceptible to anoikis and extending the time spent in the blood increases the odds of incurring this form of apoptotic cell death.

Data set [3] has as its system disseminated tumors. The data set can be described thus: Additional metastatic lesions after AMD-3100 mobilization. The format is in vivo, mice. As to the method:
Complementary studies were conducted in mice harboring experimental metastases as detected at one week post-grafting, and left either untreated or treated at the second and third week with AMD-3100, alone or in combination with Compound XXII (FIG. 10B). All lesions identified at the fifth week that had not been previously detected at the second week of the experiment were counted and compared among treatment groups.

The test system of data set [4] is disseminated tumors. It is filed as in vivo. On the procedure:
(§1) One week after intracardiac injection, animals were randomly assigned to control and treated group and then imaged for tumors in the skeleton and soft-tissue organs. Vehicle or Compound XXII (10 mg/kg) were administered i.p. twice/day, for the entire duration of the study and animals were imaged weekly. Doxorubicin was purchased from LEK Laboratories (D5794), dissolved in PBS at 1 mg/ml and stored at −20° C. before use. All experiments were performed in agreement with NIH guidelines for the humane use of animals. The Drexel University College of Medicine Committee approved all protocols involving the use of animals for the Use and Care of Animals.
Mice harboring 1-week disseminated tumors were treated with the anthracycline antibiotic Doxorubicin (5 mg/Kg, i.p., q.w.), alone or in combination with Compound XXII (10 mg/Kg, i.p., b.i.d.) for the entire duration of the study. […] When the effects on both number of tumors and tumor burden were examined. […] It could be argued that this lack of effect shown by the chemotherapeutic drug was likely attributable to the short length of treatment, shorter than common protocols used in oncology practice. […] The acute toxicity of Doxorubicin precluded longer experiments. In order to test whether retaining cancer cells in the blood circulation by targeting CX3CR1 could extend their exposure to chemotherapeutics, the fluorescent properties of Doxorubicin were utilized and the red-spectrum emitted fluorescence of CTCs was collected at steady state from mice harboring disseminated tumors which were treated with Doxorubicin (alone, one hour after or three hours prior to administration of Compound XXII). CTCs were collected—independently of the type of treatment—four hours after Doxorubicin administration.

The test system of data set [5] is MDA-231 cells. The data set can be described thus: Model of metastatic disease: one-week MDA-231 tumors, bioluminescence imaging. It is filed as in vivo, mice. As to the method: as §1
MDA-231 cells were stably transduced with the pLeGo-IG2-Luc2 vector. Prior to imaging, animals were injected i.p. with 150 mg/kg of D-luciferin (ViVoGlo, Promega) and anesthetized using 3% isoflurane. Animals were then transferred to the chamber of an IVIS Lumina XR (PerkinElmer) where they received 2% isoflurane throughout the image acquisition. Fifteen minutes after injection of the substrate, five-minute exposures of both dorsal and ventral views were obtained and quantification and analysis of bioluminescence was performed using the Living Image software.
To determine whether the pharmacologic targeting of CX3CR1 with Compound I would produce similar effects, mice were grafted with MDA-231 cells and at the first week post-IC injection were randomized and administered with either vehicle or 10 mg/Kg Compound I i.p. twice daily for three weeks, based on pharmacokinetics studies with this compound. Animals were imaged weekly before being euthanized, and treatment with Compound I led to a reduction in the number of tumor foci and overall tumor burden, at least as effectively as observed using CRISPRi (FIGS. 5A-5B).

Another data set in a line: in vivo. The following applies: mouse, ip, 10 mg/kg.
The nature of data set [6]: Pharmacokinetic studies in mice, 10 mg/kg i.p. The following applies: 1 hour, vs 10 nM.
Method: (§2) Animals were then anesthetized as described above and 300 μl of blood samples were collected by cardiac puncture at the designated time points and transferred in K2EDTA tubes. Blood samples were placed on ice and tested after dilution.
Data set [7] concerns disseminated tumors. As to the kind of experiment: Docetaxel alone or with Compound XXII in animals bearing disseminated tumors. The format is in vivo. As to the method: Animals bearing disseminated tumors were treated with Docetaxel (2 mg/Kg, i.p., bis in 7 d.) either alone or in combination with Compound XXII (10 mg/Kg i.p., q12h) and compared to Compound XXII alone (FIGS. 11E-11G).

Data set [8] concerns MDA-231 cells. As to the kind of experiment: Reseeding of CTCs to bone and lungs (GFP/CM-Dil double-labeled cells). It is filed as in vivo, mice. The following applies: AMD-3100 with Compound XXII 10 mg/Kg i.p. 1 hr prior and 3 hrs after; 12 or 24 hours. On the procedure:
The CellTracker™ CM-Dil (ThermoFisher Scientific) was diluted as 50 μg in 50 μl of DMSO to prepare a stock solution. Immediately before use, the stock solution was diluted with D-PBS to a 1 μM working solution. Cells were exposed to the working solution at 37° C. for 5 minutes and then at 4° C. for 15 minutes and then washed with PBS followed by F-12 cell culture medium.
Green-fluorescent MDA-231 cells were labeled with the cell-tracker CM-Dil, a widely validated red-fluorescent dye that, while being stably retained by non-dividing cells, is transferred to daughter cells upon mitosis and eventually becomes too diluted and undetectable in rapidly dividing cell populations. Based on these features, GFP/CM-Dil double-labeled cancer cells, when reseeding from established tumors would emit green fluorescence but lack red fluorescence, as the results of high proliferation during tumor growth and consequential dilution of the CM-Dil dye. Cancer cells that became dormant upon seeding different tissues following intracardiac injection would retain the CM-Dil dye, thereby emitting signals in both green and red fluorescent spectra (FIG. 9A). For these experiments, mice were grafted with double-labeled cancer cells in the left cardiac ventricle and allowed to develop tumors for two weeks. […]

Data set [9] has as its system 4T-1 murine breast cancer cells. As to the kind of experiment: Model of tumor seeding: 4T-1 cells inoculated intracardially in Balb-C mice. It is filed as in vivo. The following applies: 10 mg/kg i.p. one hour before and 3 hours after inoculation. On the procedure:
Mice were sacrificed 24 hours post-injection.

The mark [10] stands for this setting: single dose 5 mg/kg, mice with 3-week tumors.
[11] abbreviates: Doxorubicin alone 5 mg/Kg i.p. q.w., two weeks.
Setting [12] is: 10 mg/kg i.p. twice/day from one week post-inoculation, vs vehicle.
Setting [13] is: Doxorubicin 5 mg/Kg q.w. in combination with Compound XXII 10 mg/Kg i.p. b.i.d.

The structures appear in SMILES notation. “And” between values parts separate entries of the source, which are not always exact repeats. Identical values can stand only once. Like-named read-outs stand apart in the source and are kept apart here.

Method for in vivo: as §2

On to `c1cc(CN2CCCNCCNCCCNCC2)ccc1CN1CCCNCCNCCCNCC1` [AMD-3100, reference compound], for which the “seeding of the skeleton by MDA-231 breast cancer cells” value in data set [1] is listed as “unaffected”. Also, the “area under the curve of CTC counts vs time” value with MDA-231 cells [2] (AMD-3100 alone) is 345. In the data set on MDA-231 cells [2], the “mobilization of cancer cells (CTCs) into the blood” value is “rapid increase in the number of CTCs”. In the data set with MDA-231 cells [2] (setting [10]), the “time of peak number of CTCs post-treatment” value turned out to be 3 h and the “time of return of CTCs to steady-state counts” value was 48 h. For the same molecule, the “number of additional lesions vs untreated animals” value with disseminated tumors [3] (AMD-3100 alone at second and third week, lesions at fifth week) is listed as “doubled number of additional lesions”.

On to `COc1cccc2c1C(=O)c1c(O)c3c(c(O)c1C2=O)C[C@@](O)(C(=O)CO)C[C@@H]3O[C@H]1C[C@H](N)[C@H](O)[C@H](C)O1` [Doxorubicin, reference compound], for which, in the data set on disseminated tumors [4] (setting [11]), the “number of tumors vs control” value is “failed to show any significant effect” and the “tumor burden vs control” value was “failed to show any significant effect”.

Consider `O=c1c2cccn2c2ccccc2n1CCCN1CCC(c2ccc(Cl)cc2)CC1` [Compound I, 5-(3-(4-(4-chlorophenyl)piperidin-1-yl)propyl)pyrrolo[1,2-a]quinoxalin-4(5H)-one], for which the “number of tumors (tumor foci)” value in the data set on MDA-231 cells [5] (setting [12]) is recorded as “reduction”. The overall tumor burden result in the data set on MDA-231 cells [5] (setting [12]) was “reduction”. Also, the “reduction in DTCs vs vehicle” value is “approximately 60%” in [1] (10 mg/Kg i.p. twice, one hour prior and three hours after IC inoculation); “approximately 60%” in [1] (MDA-231 cells pre-incubated with 10 nM compound). Besides, the concentration at 1 h in “in vivo” (in vivo) was 89 ng/mL and 210 nM. In addition, the “increase of blood level over lowest fully effective dose in vitro” value in [6] was determined as 20 fold.

With `CC(=O)O[C@@]12CO[C@@H]1C[C@H](O)[C@@]1(C)C(=O)[C@H](O)C3=C(C)[C@@H](OC(=O)[C@H](O)[C@@H](NC(=O)OC(C)(C)C)c4ccccc4)C[C@@](O)([C@@H](OC(=O)c4ccccc4)[C@H]21)C3(C)C` [docetaxel, reference compound], the tumor growth result in the data set with disseminated tumors [7] (docetaxel alone 2 mg/Kg i.p. bis in 7 d.) is “significantly suppressed tumor growth”.

In the case of `O=C1CN(CCCn2c(=O)c3cccn3c3ccccc32)CCN1c1ccc(Cl)cc1` [Compound XXII, 5-(3-(4-(4-chlorophenyl)-3-oxopiperazin-1-yl)propyl)pyrrolo[1,2-a]quinoxalin-4(5H)-one], the “overall tumor burden, % of the levels in the control group” value in the data set on MDA-231 cells [5] (10 mg/kg i.p. twice/day from one week post-inoculation) is listed as “below 50%”. For the same molecule, in the data set with MDA-231 cells [5] (setting [12]), the “number of tumors (tumor foci)” value is given as “strongly reduced” and the overall tumor burden result was “strongly reduced”. In addition, the overall survival result with MDA-231 cells [5] (10 mg/kg i.p. twice/day, Kaplan-Meier, vs vehicle) was “increase in overall survival”. Also, the “number of reseeded cancer cells in lung and knee-joints” value in the data set with MDA-231 cells [8] was “dramatically reduced”. The “seeding of the skeleton by 4T-1 breast cancer cells” value in data set [9] is on record as “severely impaired”. In the data set with disseminated tumors [4] (Compound XXII administered prior to Doxorubicin, CTCs collected four hours after Doxorubicin), the “number of CTCs positive for intracellular Doxorubicin” value is given as “significant increase”. Moreover, the “anti-tumor effect compared with Doxorubicin” value with disseminated tumors [4] (Compound XXII alone 10 mg/Kg i.p. b.i.d., short period of time) is on record as “superior anti-tumor effect than Doxorubicin”. In the data set on disseminated tumors [4] (setting [13]), the “containment of tumor numbers” value is listed as “comparable to Compound XXII alone” and the “mitigation of tumor burden” value is “comparable to Compound XXII alone”. The “synergistic effects of combination” value in the data set on disseminated tumors [4] (Doxorubicin combined with Compound XXII) was “Synergistic effects were minimal”. The “tumor burden after one week of treatment vs Compound XXII alone” value in the data set on disseminated tumors [4] (Doxorubicin in combination with Compound XXII, 1 week) is listed as “significantly superior effect”. Besides, the “seeding of the skeleton by MDA-231 breast cancer cells” value in [1] is “severely impaired”. Besides, the “overall efficacy for lowering total tumor burden” value with disseminated tumors [7] (Compound XXII alone 10 mg/Kg i.p. q12h, each time point) is on record as “comparable to the current standard of care, docetaxel alone”. The “synergistic effects of combination” value with disseminated tumors [7] (Docetaxel with Compound XXII, especially after 11 days of treatment) is listed as “Synergistic effects were observed”. Further, in the data set on MDA-231 cells [2] (AMD-3100 combined with Compound XXII, then Compound XXII alone twice/day), the “area under the curve of CTC counts vs time” value was determined as 731. Moreover, in the data set on MDA-231 cells [2] (AMD-3100 in combination with Compound XXII, CTCs collected at 12 and 24 hours), the “percentage of apoptotic CTCs (Bax/Bcl-2 ratio) vs AMD-3100 alone” value is “increased the percentage of apoptotic CTCs”. In addition, the “magnitude of increase in CTC counts vs AMD-3100 alone” value with MDA-231 cells [2] (Compound XXII co-administered with AMD-3100) was “more than two-fold higher”. The “mobilization of cancer cells (CTCs) into the blood” value in the data set on MDA-231 cells [2] is “does not mobilize cancer cells back in the blood”. Further, in the data set “in vivo” (plasma), the concentration at 1 h is approximately 200 ng/mL and the concentration at 6 h is 60 ng/mL. The “AMD-3100-induced increase of additional lesions” value with disseminated tumors [3] (AMD-3100 in combination with Compound XXII) is “ablated”.

The record behind these values is patent publication US12630555B2, “Substituted pyrrolo[1,2-a]quinoxalin-4(5H)-ones as CX3CR1 antagonists” (Drexel University, priority 2017, dated 2026).
